Consider 5 substances from patent publication US8680253B2 (OliPass Corporation, priority 2008, dated 2014).

One data set has as its system MCF-7 cells. In words: Cell penetration of fluorescein-tagged PNA oligomers, confocal fluorescence microscopy. In kind it is cell-based, human. The following applies: 2.5 μM, 0.5 and 1 h, without FBS, 63× objective. How it is done: (§1) In order to evaluate the cell penetration ability of PNA oligomers of this invention, cancer cells of human origin were treated with PNA oligomers covalently tagged with fluorescein. The applied method is provided in brief as follows.
(§2) To each cover glass (autoclaved) placed in each well of a 24-well plate, were seeded 20,000˜100,000 cells depending on the growth rate of the cell line used, and the cells were cultured at 37° C. and 5% CO2 for 16 to 24 h. Then the medium was replaced with 500 μl fresh Opti-MEM medium (with or without 1% FBS), to which was added an aliquot of aq stock solution of a PNA oligomer covalently tagged with fluorescein. After cells were cultured for a designated interval, the cells were washed with PBS, and fixed by incubating in 3.7% or 4% paraformaldehyde. The cells were thoroughly washed several times with PBS or PBS containing 0.1% Tween-20. Then the cover glass was mounted onto a slide glass using a drop of mounting solution and sealed with nail polish for confocal fluorescence microscopy. Fluorescence images were taken either on a Zeiss LSM 510 confocal microscope (Germany) at 63× objective or on a Nikon C1Si confocal microscope at 40× objective.

Another data set deals with HeLa cells. The data set is described as above. The following applies: 40× objective. The data set is classed as cell-based, human. How it is done: as §1, §2
The test system of another data set is JAR cells. The description is as above. In kind it is cell-based, human. The following applies: 2 μM, 24 h, without FBS, 40× objective. How it is done:
as §1, §2

A further data set relates to A549 cells. The data set is described as above. The data set is classed as cell-based, human. The settings on record: 2 μM, 24 h, without FBS, 40× objective. How it is done: as §1, §2
The next data set concerns apoB-100. The following applies: a certain population of atherosclerosis patients; cited from earlier work.

{Fam-L(1)L(1)} = N-terminal fluorescein (Fam) label attached through two L(1) linkers; {Lys-NH2} = C-terminal lysine amide

Turning to “Fam-L(1)L(1)-TC(1O3)T-CC(1O3)C-AGC(1O3)-GTG-C(1O3)GC-C(1O3)AT-Lys-NH2 (TCTCCCAGCGTGCGCCAT; Fam-L(1)L(1) label, modified PNA, Lys-NH2, chemistry not fully specified) [Oligo 6, fluorescein-tagged modified PNA oligomer]”, the “cell penetration, fluorescence intensity” value in the data set with MCF-7 cells is “fluorescence intensity is clear and becomes intense over 1 h”; with HeLa cells (1 μM, 6 or 24 h, with 1% FBS), “fluorescence intensity is clear and becomes intense over 24 h”.
As for “Fam-L(2)-TG(5)G-C(1O2)AA-C(1O2)TG-A(5)T-Lys-NH2 (TGGCAACTGAT; Fam-L(2) label, modified PNA, Lys-NH2, chemistry not fully specified) [Oligo 21, fluorescein-tagged modified PNA oligomer]”, the “cell penetration, fluorescence intensity” value is recorded as “fluorescence intensity is strong” with JAR cells; “fluorescence intensity is strong” in the data set on A549 cells; “fluorescence intensity is apparent” in the data set with HeLa cells (2 μM, 12 h, without FBS); “significantly stronger than that in FIG. 7(e)” in the data set with HeLa cells (2 μM, 24 h, without FBS).
Turning to “Fam-L(1)L(1)-TCT-CCC-AGC-GTG-CGC-CAT-Lys-NH2 (TCTCCCAGCGTGCGCCAT; all peptide nucleic acid (PNA), 5' {Fam-L(1)L(1)}, 3' {Lys-NH2}) [Oligo 7, fluorescein-tagged 'unmodified' PNA oligomer, reference compound]”, in the data set with MCF-7 cells, the “cell penetration, fluorescence intensity” value is recorded as “fluorescence intensity is faint”.
Consider Mipomersen, for which the clinical activity result in the data set with apoB-100 is “due clinical activity”.
As for “Fam-L(2)-TT-C(1O2)AT-A(5)GT-A(5)TA-AG(5)T-Lys-NH2 (TTCATAGTATAAGT; Fam-L(2) label, modified PNA, Lys-NH2, chemistry not fully specified) [Oligo 22, fluorescein-tagged modified PNA oligomer]”, the “cell penetration, fluorescence intensity” value is reported as “good cell penetration” in the data set with JAR cells; “good cell penetration” with A549 cells; “good cell penetration” in the data set with HeLa cells (2 μM, 24 h, without FBS).
